Data from paper PMC5971037, “Synthesis and evaluation of antimicrobial, antitubercular and anticancer activities of 2-(1-benzoyl-1H-benzo[d]imidazol-2-ylthio)-N-substituted acetamides” (Chemistry Central Journal, 2018).
≈ marks a conversion by molar mass, not a printed value. Like-named read-outs stand apart in the source and are kept apart here.

Legend:
B. subtilis [1] = assay: Tube dilution MIC; conditions: Bacillus subtilis, 24 h, read-out: MIC B. subtilis
A. niger [2] = assay: microbe, parasite or virus in culture; conditions: Aspergillus niger, 168 h, read-out: MIC A. niger
M. tuberculosis H37Rv [3] = assay: MIC by microplate alamar blue assay; format: cell-based; conditions: Mycobacterium tuberculosis, NA = no activity, read-out: MIC against M. tuberculosis H37Rv
[4] = test system: HCT116 (human colorectal) cell line; assay: Sulforhodamine-B (SRB) cytotoxicity assay; format: cell-based
[5] = In vivo LD50, ED50 and toxic dose in mice models; conditions: mouse, dose that killed 50% of the mice population within the group
Procedure: The LD50 and ED50 were determined for the active compounds in mice models infected with Mycobacterium H37Rv (Table 4). […] Thus, ED50 of 1.34 mg/kg was considered safe for each of the compounds. It was observed that this dose was effective and safe for mice in different groups before infecting the mice models with specific TB bacteria as no mortality of any single animal was recorded.
The LD50 (lethal dose) and ED50 (optimum/effective dose) doses were determined for the active compounds in mice models infected with Mycobacterium H37Rv via ethical permission no., NCFT/EC/16/2313 assigned to Collaborative Research Group (CRG), NCFT, New Delhi, India.

[6] = test system: MCF7 (human breast cancer) cell line; assay: Sulforhodamine-B (SRB) cytotoxicity assay; format: cell-based
S. typhi [7] = assay: Tube dilution MIC; format: cell-based; conditions: Salmonella enterica, 24 h, read-out: MIC S. typhi
E. coli [8] = assay: Tube dilution MIC; conditions: Escherichia coli, 24 h, read-out: MIC E. coli
S. typhi [9] = assay: MBC by subculturing; format: cell-based; conditions: Salmonella enterica, read-out: MBC S. typhi
Procedure: (§1) The minimum bactericidal concentration (MBC) and minimum fungicidal concentration (MFC) of the synthesized benzimidazole derivatives was determined by subculturing 100 µl of culture from each tube that remained clear in MIC determination onto sterilized petri-plates containing fresh agar medium. The petri-plates were incubated and analyzed for microbial growth visually.

E. coli [10] = assay: MBC by subculturing; format: cell-based; conditions: Escherichia coli
Procedure: as §1

S. aureus [11] = assay: MBC by subculturing; format: cell-based; conditions: Staphylococcus aureus
Procedure: as §1

B. subtilis [12] = assay: MBC by subculturing; format: cell-based
Procedure: as §1

B. cereus [13] = assay: MBC by subculturing; format: cell-based
Procedure: as §1

B. cereus [14] = assay: Tube dilution MIC; conditions: Bacillus cereus, 24 h, read-out: MIC B. cereus
[15] = molecular target: mycobacterial isocitrate lyase (Mycobacterium tuberculosis, UniProt P9WKK7); assay: Mycobacterial isocitrate lyase (ICL) assay; format: biochemical, M. tuberculosis H37Rv; conditions: read-out: Percent inhibition of enzyme, M. ICL activity
Chain of mycobacterial isocitrate lyase (P9WKK7 whole entry): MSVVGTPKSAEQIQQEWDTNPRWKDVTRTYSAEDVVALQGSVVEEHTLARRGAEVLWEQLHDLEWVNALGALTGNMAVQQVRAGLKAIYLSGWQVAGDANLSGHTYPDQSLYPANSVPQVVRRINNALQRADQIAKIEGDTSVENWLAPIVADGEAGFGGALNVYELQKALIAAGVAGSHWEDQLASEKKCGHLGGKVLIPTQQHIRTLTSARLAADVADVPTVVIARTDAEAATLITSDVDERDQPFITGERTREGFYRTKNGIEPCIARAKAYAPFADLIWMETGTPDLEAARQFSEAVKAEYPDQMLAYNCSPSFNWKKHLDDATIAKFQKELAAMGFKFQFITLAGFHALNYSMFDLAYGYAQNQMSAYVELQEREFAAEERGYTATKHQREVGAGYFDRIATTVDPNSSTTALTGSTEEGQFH
Procedure: The compounds found potent in in vivo evaluation were assayed for inhibition of mycobacterial enzymes viz., isocitrate lyase, pantothenate synthetase and chorismate mutase.
Isocitrate lyase activity was assayed according to the protocol reported by Dixon and Kornberg (glyoxylate phenyl hydrazone formation) at 10 μM of the compounds.

[16] = test system: M. tuberculosis H37Rv (NCFT/TB/537); assay: Well diffusion susceptibility test (zone of inhibition); format: cell-based; conditions: Mycobacterium tuberculosis, 672 h, read-out: Diameter of zone of inhibition against H37Rv (NCFT/TB/537), wells of 8 mm, 50 µg/ml test compound, 25 µg/ml standard drug, 4 weeks, NA = no activity
M. tuberculosis H37Rv [17] = assay: Minimum lethal concentration (MLC); format: cell-based; conditions: Mycobacterium tuberculosis, NA = no activity, read-out: MLC against M. tuberculosis H37Rv
C. albicans [18] = assay: microbe, parasite or virus in culture; conditions: Candida albicans, 48 h, read-out: MIC C. albicans
C. albicans [19] = assay: MFC by subculturing; format: cell-based
Procedure: as §1

A. niger [20] = assay: MFC by subculturing; format: cell-based
Procedure: as §1

S. aureus [21] = assay: Tube dilution MIC; conditions: Staphylococcus aureus, 24 h, read-out: MIC S. aureus
[22] = test system: Gram positive as well as Gram negative bacterial species; assay: Tube dilution MIC, bacteria overall; format: cell-based

SMILES | MIC (B. subtilis [1]) | MIC (A. niger [2]) | MIC (M. tuberculosis H37Rv [3]) | MIC (S. typhi [7]) | MIC (E. coli [8]) | MBC (S. typhi [9]) | MBC (E. coli [10]) | MBC (S. aureus [11]) | MIC (B. cereus [14]) | zone of inhibition at 50 µg/mL [16] | MBC (M. tuberculosis H37Rv [17]) | MIC (C. albicans [18]) | MIC (S. aureus [21]) | MIC against Gram positive as well as Gram negative bacterial species [22] | further results
O=C(CSc1nc2ccccc2n1C(=O)c1ccccc1)Nc1cccc(Br)c1 [Compound 8, 2-(1-Benzoyl-1H-benzo[d]imidazol-2-ylthio)-N-(3-bromophenyl)acetamide] | 27 µM (≈ 12.6 µg/mL) | 27 µM (≈ 12.6 µg/mL) | 12.5 µg/mL (≈ 26.8 µM) | 27 µM (≈ 12.6 µg/mL) | 27 µM (≈ 12.6 µg/mL) | > 50 µg/mL | > 50 µg/mL | 50 µg/mL (≈ 107 µM) | 27 µM (≈ 12.6 µg/mL) | > 20 mm | 25 µg/mL (≈ 53.6 µM) | 13 µM (≈ 6.06 µg/mL) | 27 µM (≈ 12.6 µg/mL) | 0.027 µM/ml | IC50 ([4]; HCT-116, read-out: IC50 HCT116): 107 µM; LD50 [5]: 1.88 mg/kg; IC50 ([6]; MCF7, read-out: IC50 MCF7): 68.6 µM; MBC (B. subtilis [12]; Bacillus subtilis, read-out: MBC B. subtilis): > 50 µg/mL; MBC (B. cereus [13]; Bacillus cereus, read-out: MBC B. cereus): > 50 µg/mL; inhibition at 10 µM [15]: 59.5%; MFC (C. albicans [19]; Candida albicans, read-out: MFC C. albicans): 50 µg/mL (≈ 107 µM); MFC (A. niger [20]; Aspergillus niger, read-out: MFC A. niger): > 50 µg/mL
O=C(CSc1nc2ccccc2n1C(=O)c1ccccc1)Nc1ccc(Cl)cc1[N+](=O)[O-] [Compound 11, 2-(1-Benzoyl-1H-benzo[d]imidazol-2-ylthio)-N-(4-chloro-2-nitrophenyl)acetamide] | 27 µM (≈ 12.6 µg/mL) | 27 µM (≈ 12.6 µg/mL) | 15 µg/mL (≈ 32.1 µM) | 27 µM (≈ 12.6 µg/mL) | 27 µM (≈ 12.6 µg/mL) | 50 µg/mL (≈ 107 µM) | 50 µg/mL (≈ 107 µM) | 50 µg/mL (≈ 107 µM) | 27 µM (≈ 12.6 µg/mL) | 10 mm | 28 µg/mL (≈ 60 µM) | 13 µM (≈ 6.07 µg/mL) | 27 µM (≈ 12.6 µg/mL) | 0.027 µM/ml | IC50 ([4]; HCT-116, SRB assay, HCT116 cell line, read-out: IC50 HCT116): 23.6 µM; IC50 ([6]; SRB assay, MCF7 cell line, read-out: IC50 MCF7): 161 µM; MBC (B. subtilis [12]; Bacillus subtilis; read-out: MBC B. subtilis): 50 µg/mL (≈ 107 µM); MBC (B. cereus [13]; Bacillus cereus; read-out: MBC B. cereus): > 50 µg/mL; MFC (C. albicans [19]; Candida albicans; read-out: MFC C. albicans): > 50 µg/mL; MFC (A. niger [20]; Aspergillus niger; read-out: MFC A. niger): > 50 µg/mL
